Data taken from US11111245B2, “Derivatives of N-cycloalkyl/heterocycloalkyl-4-(imidazo[1,2-a]pyridine)pyrimidin-2-amine as therapeutic agents” (Aucentra Therapeutics Pty Ltd, priority 2017, dated 2021).
Read-outs that look alike come from different tables or passages of the source.

Assays:
Format in all cases: biochemical
CDK4/D1 = CDK4/D1 (Homo sapiens, UniProt P11802); assay: ADP Glo Kinase assay CDK4/D1; settings: CDK4D1; for remaining activity at 10 µM: compound at 10 μM, read-out: residual activity (%) at 10 μM CDK4D1; for Ki: read-out: CDK inhibition, Ki (μM) CDK4D1
CDK4/D1, sequence (P11802 whole entry): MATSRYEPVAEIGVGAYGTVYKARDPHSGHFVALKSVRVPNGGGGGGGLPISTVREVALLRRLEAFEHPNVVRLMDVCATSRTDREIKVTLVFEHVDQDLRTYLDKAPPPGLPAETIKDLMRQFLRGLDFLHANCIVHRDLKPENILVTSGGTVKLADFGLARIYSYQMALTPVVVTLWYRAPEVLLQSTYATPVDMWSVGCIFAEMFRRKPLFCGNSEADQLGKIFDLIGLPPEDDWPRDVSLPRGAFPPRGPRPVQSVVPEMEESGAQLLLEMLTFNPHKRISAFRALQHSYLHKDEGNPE
CDK4/D1, sequence (P24385 whole entry partner): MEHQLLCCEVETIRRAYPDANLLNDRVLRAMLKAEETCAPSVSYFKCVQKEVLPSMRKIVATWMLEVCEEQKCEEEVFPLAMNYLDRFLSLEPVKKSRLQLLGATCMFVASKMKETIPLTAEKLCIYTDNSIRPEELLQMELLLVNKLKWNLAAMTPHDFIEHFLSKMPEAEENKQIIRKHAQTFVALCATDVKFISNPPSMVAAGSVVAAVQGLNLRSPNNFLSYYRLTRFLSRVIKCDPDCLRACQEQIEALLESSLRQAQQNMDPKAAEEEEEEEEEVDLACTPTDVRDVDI
How it was run: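 In-house ADP-Glo assay: CDK4/D1 or CDK6/D3 with RB-CTF substrate in […] Tris pH 7.5, 20 mM MgCl2, 0.4 mM DTT, 0.1 mg/ml BSA; ATP-started, 40 min at 37° C.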

CDK6/D3 = CDK6/D3 (Homo sapiens, UniProt Q00534); assay: ADP Glo Kinase assay CDK6/D3; settings: CDK6D3; for remaining activity at 10 µM: compound at 10 μM, read-out: residual activity (%) at 10 μM CDK6D3; for Ki: read-out: CDK inhibition, Ki (μM) CDK6D3
CDK6/D3, sequence (Q00534 whole entry): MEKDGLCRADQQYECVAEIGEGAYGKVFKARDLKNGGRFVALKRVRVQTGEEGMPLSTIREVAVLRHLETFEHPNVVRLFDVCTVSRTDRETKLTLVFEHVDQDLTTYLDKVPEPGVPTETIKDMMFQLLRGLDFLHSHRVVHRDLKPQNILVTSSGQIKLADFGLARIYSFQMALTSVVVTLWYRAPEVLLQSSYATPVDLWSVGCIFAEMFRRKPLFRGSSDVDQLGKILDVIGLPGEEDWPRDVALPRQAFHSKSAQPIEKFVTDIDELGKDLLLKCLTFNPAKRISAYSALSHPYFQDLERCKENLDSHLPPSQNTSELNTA
CDK6/D3, sequence (P30281 whole entry partner): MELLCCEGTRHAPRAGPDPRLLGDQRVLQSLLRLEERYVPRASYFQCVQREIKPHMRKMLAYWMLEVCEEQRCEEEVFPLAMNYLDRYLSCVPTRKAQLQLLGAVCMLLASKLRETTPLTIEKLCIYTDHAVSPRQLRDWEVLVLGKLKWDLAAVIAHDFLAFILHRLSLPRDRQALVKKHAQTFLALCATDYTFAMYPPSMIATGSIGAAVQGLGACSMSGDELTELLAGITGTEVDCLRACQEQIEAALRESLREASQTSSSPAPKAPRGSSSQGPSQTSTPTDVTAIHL
Experimental: Eurofins Pharma Discovery or Reaction Biology Corporation Kinase Profiler services were used to measure inhibition of CDKs and other kinases by radiometric assay. Inhibition of CDK4/D1, CDK6/D3 and CDK9/T1 were also determined in-house using ADP Glo Kinase assays (Promega Corporation, Madison, USA). Briefly, the kinase reaction for CDK4/D1 and CDK6/D3 was performed with kinase reaction buffer ([…] Tris base pH 7.5, 20 mM MgCl2, 0.4 mM DTT), 0.1 mg/ml BSA and RB-CTF substrate (retinoblastoma protein 1 C-terminal fraction). For CDK9/CyclinT1, the kinase reaction was performed with standard assay buffer and Kinase Dilution Buffer and RBER-IRStide substrate. Serial dilutions of 1:3 were prepared for test compounds for 10 concentrations (from 10 μM to 0.5 nM). The kinase reactions were started by addition of ATP, incubated for 40 min at 37° C. and then stopped by adding 10 μL of ADP Glo reagent. After incubation at room temperature in the dark for 40 min, 20 μL of kinase detection reagent was added per well and incubated for 40 min. Luminescence was measured using an EnVision Multilabel plate reader (PerkinElmer, Buckinghamshire, UK). Positive and negative controls were performed in the presence and absence of CDK kinases, respectively. Half-maximal inhibition (IC50) values were calculated using a 4-parameter logistic non-linear regression model with Graphpad prism (Version 6.0). Apparent inhibition constants (Ki) values were calculated from Km (ATP) and IC50 values for the respective kinases.

CDK9/T1 = CDK9/T1 (Homo sapiens, UniProt P50750); assay: ADP Glo Kinase assay CDK9/T1
CDK9/T1, sequence (P50750 whole entry): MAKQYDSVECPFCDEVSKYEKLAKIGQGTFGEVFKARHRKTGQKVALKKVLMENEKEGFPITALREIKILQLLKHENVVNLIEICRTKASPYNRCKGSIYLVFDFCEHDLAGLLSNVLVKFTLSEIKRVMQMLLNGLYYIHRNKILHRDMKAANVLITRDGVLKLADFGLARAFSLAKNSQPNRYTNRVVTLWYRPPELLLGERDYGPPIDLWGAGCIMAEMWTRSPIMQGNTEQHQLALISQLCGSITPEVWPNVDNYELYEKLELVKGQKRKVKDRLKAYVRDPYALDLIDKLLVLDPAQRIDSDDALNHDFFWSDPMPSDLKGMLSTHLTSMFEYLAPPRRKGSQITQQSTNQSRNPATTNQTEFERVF
CDK9/T1, sequence (O60563 whole entry partner): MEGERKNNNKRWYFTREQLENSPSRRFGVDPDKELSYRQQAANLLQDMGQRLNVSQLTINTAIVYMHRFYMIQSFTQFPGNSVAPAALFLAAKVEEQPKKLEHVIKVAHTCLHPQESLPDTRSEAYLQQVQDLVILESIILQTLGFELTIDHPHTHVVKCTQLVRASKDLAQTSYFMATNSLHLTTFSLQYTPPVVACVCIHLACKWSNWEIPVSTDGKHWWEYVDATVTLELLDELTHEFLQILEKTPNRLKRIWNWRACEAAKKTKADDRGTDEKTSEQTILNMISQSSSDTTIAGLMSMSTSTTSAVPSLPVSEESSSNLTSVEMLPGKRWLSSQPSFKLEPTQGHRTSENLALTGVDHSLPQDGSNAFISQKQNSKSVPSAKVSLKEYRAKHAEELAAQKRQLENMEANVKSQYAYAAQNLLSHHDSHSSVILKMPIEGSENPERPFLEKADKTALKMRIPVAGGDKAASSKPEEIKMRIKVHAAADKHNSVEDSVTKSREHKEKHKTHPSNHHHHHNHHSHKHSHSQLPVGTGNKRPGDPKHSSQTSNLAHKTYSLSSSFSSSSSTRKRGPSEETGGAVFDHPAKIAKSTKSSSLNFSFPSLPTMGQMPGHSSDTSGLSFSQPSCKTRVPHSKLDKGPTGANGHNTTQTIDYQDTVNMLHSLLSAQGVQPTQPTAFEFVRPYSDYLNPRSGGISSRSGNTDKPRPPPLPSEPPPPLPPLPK
How it was run: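 CDK4/D1 and CDK6/D3 were run in […] Tris pH 7.5, 20 mM MgCl2, 0.4 mM DTT, 0.1 mg/ml BSA with RB-CTF substrate; CDK9/T1 used RBER-IRStide. ATP-started reactions ran 40 min at 37° C, with ADP Glo luminescence read-out. IC50 came from 4-parameter fits; Ki from Km (ATP) and IC50.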

CDKs and other kinases [1] = target: T1, CDKs and other kinases (Homo sapiens, UniProt P06493); assay: Radiometric kinase assay (Eurofins Pharma Discovery or Reaction Biology Corporation Kinase Profiler); settings: CDK1B; for remaining activity at 10 µM: compound at 10 μM, read-out: residual activity (%) at 10 μM CDK1B; for Ki: read-out: CDK inhibition, Ki (μM) CDK1B
T1 construct: other: CDK1B; residual activity (%) at 10 μM CDK1B; compound at 10 μM
T1 sequence (P06493 whole entry): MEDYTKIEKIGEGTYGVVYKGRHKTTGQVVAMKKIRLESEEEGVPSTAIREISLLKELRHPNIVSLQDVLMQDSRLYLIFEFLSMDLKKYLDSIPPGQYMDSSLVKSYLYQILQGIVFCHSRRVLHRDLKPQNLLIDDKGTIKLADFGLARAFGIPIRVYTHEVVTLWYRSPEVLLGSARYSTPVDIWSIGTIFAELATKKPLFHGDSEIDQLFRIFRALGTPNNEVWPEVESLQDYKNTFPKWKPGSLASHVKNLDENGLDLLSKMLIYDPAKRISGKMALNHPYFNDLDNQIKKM
How it was run: (§1)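 Other CDKs and further kinases were profiled externally by radiometric assay. In-house ADP Glo assays covered CDK4/D1 and CDK6/D3 (RB-CTF substrate, pH 7.5 Tris buffer with MgCl2, DTT, BSA) and CDK9/T1 (RBER-IRStide substrate), 40 min at 37° C.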

CDKs and other kinases [2] = target: T2, CDKs and other kinases (Homo sapiens, UniProt P24941); assay: as above; settings: CDK2A; for remaining activity at 10 µM: compound at 10 μM, read-out: residual activity (%) at 10 μM CDK2A; for Ki: read-out: CDK inhibition, Ki (μM) CDK2A
T2 construct: other: CDK2A; residual activity (%) at 10 μM CDK2A; compound at 10 μM
How it was run: as §1

CDKs and other kinases [3] = target: T3, CDKs and other kinases (Homo sapiens, UniProt P50613); assay: as above; settings: for remaining activity at 10 µM: compound at 10 μM, read-out: residual activity (%) at 10 μM CDK7H
T3 construct: other: CDK7H; residual activity (%) at 10 μM CDK7H; compound at 10 μM
T3 sequence (P50613 whole entry): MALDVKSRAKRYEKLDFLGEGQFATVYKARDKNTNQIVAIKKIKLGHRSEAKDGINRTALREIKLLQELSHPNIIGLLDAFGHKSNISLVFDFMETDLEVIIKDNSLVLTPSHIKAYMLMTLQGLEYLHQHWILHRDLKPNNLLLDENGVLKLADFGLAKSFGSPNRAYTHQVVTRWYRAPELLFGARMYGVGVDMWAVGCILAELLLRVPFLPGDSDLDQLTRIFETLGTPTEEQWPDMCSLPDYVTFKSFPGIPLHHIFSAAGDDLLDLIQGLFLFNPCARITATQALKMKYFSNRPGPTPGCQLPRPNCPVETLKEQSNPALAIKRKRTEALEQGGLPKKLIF
How it was run: as §1

[4] = CDK9T1, read-out: CDK inhibition, Ki (μM) CDK9T1
[5] = CDK7H, read-out: CDK inhibition, Ki (μM) CDK7H

| SMILES | remaining activity at 10 µM (CDK4/D1) | remaining activity at 10 µM (CDK6/D3) | Ki (CDK9/T1; [4]) | remaining activity at 10 µM (CDKs and other kinases [1]) | remaining activity at 10 µM (CDKs and other kinases [2]) | remaining activity at 10 µM (CDKs and other kinases [3]; CDK7H) | residual activity at 10 µM (CDK4/D1) | Ki (CDK4/D1) | Ki (CDK6/D3) | Ki (CDKs and other kinases [1]) | Ki (CDKs and other kinases [2]) | Ki (CDKs and other kinases [3]; [5]) | Ki (CDK9/T1) | Ki (CDKs and other kinases [3]) |
| --- | --- | --- | --- | --- | --- | --- | --- | --- | --- | --- | --- | --- | --- | --- |
| N[C@H]1CC[C@H](Nc2ncc(F)c(-c3cnc4ccc(Nc5cccnc5)cn34)n2)CC1 [Compound 49, (1r,4r)-N^1-(5-Fluoro-4-(6-(pyridin-3-ylamino)imidazo [1,2-a]pyridin-3-yl)pyrimidin-2-yl)cyclohexane-1,4-diamine] | 0% | 5% | 0.003 µM | 1% | 0% | 3% |  |  |  |  |  |  |  |  |
| N[C@H]1CC[C@H](Nc2ncc(F)c(-c3cnc4ccc(Nc5cncnc5)cn34)n2)CC1 [Compound 50, (1r,4r)-N^1-(5-Fluoro-4-(6-(pyrimidin-5-ylamino)imidazo [1,2-a]pyridin-3-yl)pyrimidin-2-yl)cyclohexane-1,4-diamine] | 14% | 4% | 0.003 µM | 1% | 0% | 4% |  |  |  |  |  |  |  |  |
| Cc1cnc(N[C@H]2CC[C@H](N)CC2)nc1-c1cnc2cc(Nc3cncnc3)ccn12 [Compound 56, (1r,4r)-N^1-(5-Methyl-4-(7-(pyrimidin-5-ylamino)imidazo [1,2-a]pyridin-3-yl)pyrimidin-2-yl)cyclohexane-1,4-diamine] | 0% | 5% | 0.051 µM | 39% | 12% | 22% |  |  |  |  |  |  |  |  |
| Cc1cnc(N[C@H]2CC[C@H](N)CC2)nc1-c1cnc2ccc(Nc3cncc(C(F)(F)F)c3)cn12 [Compound 65, (1r,4r)-N^1-(5-Methyl-4-(6-((5-(trifluoromethyl)pyridin-3-yl)amino)imidazo[1,2-a]pyridin-3-yl)pyrimidin-2-yl) cyclohexane-1,4-diamine] |  | 24% | 0.024 µM | 32% | 12% | 31% | 125% |  |  |  |  |  |  |  |
| Cc1cnc(N[C@H]2CC[C@H](N)CC2)nc1-c1cnc2ccc(Nc3cncc(F)c3)cn12 [Compound 66, (1r,4r)-N^1-(4-(6-((5-Fluoropyridin-3-yl)amino)imidazo [1,2-a]pyridin-3-yl)-5-methylpyrimidin-2-yl)cyclohexane-1,4-diamine] |  |  | 0.007 µM |  |  |  |  | 0.76 µM | 0.33 µM | 1.26 µM | 0.18 µM | 3.25 µM |  |  |
| Cc1cnc(N[C@H]2CN3CCC2CC3)nc1-c1cnc2ccc(Nc3cncnc3)cn12 [Compound 76, (R)-N-(5-Methyl-4-(6-(pyrimidin-5-ylamino)imidazo [1,2-a]pyridin-3-yl)pyrimidin-2-yl)quinuclidin-3-amine] | 91% | 89% | 0.485 µM | 72% | 59% | 92% |  |  |  |  |  |  |  |  |
| Cc1cnc(N[C@H]2CC[C@H](N3CC3)CC2)nc1-c1cnc2cc(Nc3cncnc3)ccn12 [Compound 119, 3-(2-(((1r,4r)-4-(Aziridin-1-yl)cyclohexyl)amino)-5-methylpyrimidin-4-yl)-N-(pyrimidin-5-yl)imidazo[1,2-a] pyridin-7-amine] |  |  |  |  |  |  |  | 0.64 µM | 0.54 µM | 0.623 µM | 0.14 µM |  | 0.004 µM | 0.12 µM |

Continued, in another order:

| remaining activity at 10 µM (CDK4/D1) | remaining activity at 10 µM (CDK6/D3) | Ki (CDK9/T1; [4]) | remaining activity at 10 µM (CDKs and other kinases [1]) | remaining activity at 10 µM (CDKs and other kinases [2]) | remaining activity at 10 µM (CDKs and other kinases [3]; CDK7H) | residual activity at 10 µM (CDK4/D1) | Ki (CDK4/D1) | Ki (CDK6/D3) | Ki (CDKs and other kinases [1]) | Ki (CDKs and other kinases [2]) | Ki (CDKs and other kinases [3]; [5]) | SMILES | Ki (CDK9/T1) | Ki (CDKs and other kinases [3]) |
| --- | --- | --- | --- | --- | --- | --- | --- | --- | --- | --- | --- | --- | --- | --- |
| 41% | 46% | 0.034 µM | 52% | 22% | 50% |  |  |  |  |  |  | Cc1cnc(N[C@H]2CC[C@H](N)CC2)nc1-c1cnc2ccc(Oc3cncnc3)cn12 [Compound 75, (1r,4r)-N^1-(5-Methyl-4-(6-(pyrimidin-5-yloxy)imidazo [1,2-a]pyridin-3-yl)pyrimidin-2-yl)cyclohexane-1,4-diamine] |  |  |
| 5% | 6% | 0.011 µM | 5% | 0% | 3% |  |  |  |  |  |  | N[C@H]1CC[C@H](Nc2ncc(Cl)c(-c3cnc4cc(-c5ccccc5)ccn34)n2)CC1 [Compound 77, (1r,4r)-N^1-(5-Chloro-4-(7-phenylimidazo[1,2-a]pyridin-3-yl)pyrimidin-2-yl)cyclohexane-1,4-diamine] |  |  |
| 10% | 3% | 0.019 µM | 7% | 0% | 3% |  |  |  |  |  |  | N[C@H]1CC[C@H](Nc2ncc(Cl)c(-c3cnc4cc(-c5cccnc5)ccn34)n2)CC1 [Compound 78, (1r,4r)-N^1-(5-Chloro-4-(7-(pyridin-3-yl)imidazo[1,2-a]pyridin-3-yl)pyrimidin-2-yl)cyclohexane-1,4-diamine] |  |  |
|  |  | 0.002 µM |  |  |  |  | 0.06 µM | 0.034 µM | 0.16 µM | 0.019 µM | 1.26 µM | N[C@H]1CC[C@H](Nc2ncc(Cl)c(-c3cnc4ccc(Nc5cncnc5)cn34)n2)CC1 [Compound 88, (1r,4r)-N^1-(5-Chloro-4-(6-(pyrimidin-5-ylamino)imidazo [1,2-a]pyridin-3-yl)pyrimidin-2-yl)cyclohexane-1,4-diamine] |  |  |
|  |  | 0.008 µM |  |  |  |  | 0.94 µM | 0.21 µM | 1.26 µM | 0.18 µM | > 10 µM | CNC1CCC(Nc2ncc(C)c(-c3cnc4ccc(Nc5cncnc5)cn34)n2)CC1 (stereo not drawn) [Compound 109, N^1-Methyl-N^4-(5-Methyl-4-(6-(pyrimidin-5-ylamino)imidazo[1,2-a]pyridin-3-yl)pyrimidin-2-yl)cyclohexane-1,4-diamine] |  |  |
| 99% | 100% | > 5 µM | 66% | 61% | 87% |  |  |  |  |  |  | C[C@]12C[C@]3(C)C[C@](O)(C1)C[C@](Nc1ncc(F)c(-c4cnc5ccc(-c6ccccc6)cn45)n1)(C2)C3 [Compound 110, (1s,3r,5R,7S)-3-((5-Fluoro-4-(6-phenylimidazo[1,2-a]pyridin-3-yl)pyrimidin-2-yl)amino)-5,7-dimethyladamantan-1-ol] |  |  |
| 29% | 89% | 0.108 µM | 20% | 11% | 86% |  |  |  |  |  |  | C[C@]12C[C@]3(C)C[C@](O)(C1)C[C@](Nc1ncc(F)c(-c4cnc5ccc(Nc6cncnc6)cn45)n1)(C2)C3 [Compound 111, (1s,3r,5R,7S)-3-((5-Fluoro-4-(6-(pyrimidin-5-ylamino)imidazo[1,2-a]pyridin-3-yl)pyrimidin-2-yl)amino)-5,7-dimethyladamantan-1-ol] |  |  |
| 0% | 6% | 0.036 µM |  |  |  |  |  |  | 0.154 µM | 0.026 µM | 0.018 µM | N[C@H]1CC[C@H](Nc2ncc(Cl)c(-c3cnc4cc(Nc5cncnc5)ccn34)n2)CC1 [Compound 118, (1r,4r)-N^1-(5-Chloro-4-(7-(pyrimidin-5-ylamino)imidazo [1,2-a]pyridin-3-yl)pyrimidin-2-yl)cyclohexane-1,4-diamine] |  |  |
